In ChEMBL document CHEMBL3507680, “University of Dundee, Gates Library screen for HepG2 cell viability”:

Assay: Human HepG2 cell viability assay in 384 well format
Assay type: toxicity, cell-based
Set-up: dose 125 nL, time 70.5 hour; cytotoxicity at 70.5 h: concentration not given beside the values
Conditions: HepG2 cells, read-out: Inhibition

CC(=O)N1CCC(Cc2cnc(-n3ccnc3)cn2)CC1
cytotoxicity at 70.5 h: -6.47%

CNc1cncc(C2CCCN2S(=O)(=O)c2cccc(F)c2)n1 (stereo not given)
cytotoxicity at 70.5 h: -2.79%

Cc1cccc2nc(C(=O)N3CCCC[C@]4(C)NC(=O)CCC[C@H]34)cn12
cytotoxicity at 70.5 h: -5.3%

Cc1ccc2nc(C(=O)N3CCCC[C@]4(C)NC(=O)CCC[C@H]34)cn2c1
cytotoxicity at 70.5 h: -4.04%

CN(C(=O)c1ccnn1C)[C@@H]1CCC[C@@H](Oc2ccccc2)[C@@H]1O
cytotoxicity at 70.5 h: -3.62%

Cc1ccccc1CC(=O)N[C@@H]1CCC[C@@H](N2CCNC(=O)C2)[C@@H]1O
cytotoxicity at 70.5 h: -6.12%

CN(C(=O)c1cn(C)cn1)[C@@H]1CCC[C@@H](Oc2ccccc2)[C@@H]1O
cytotoxicity at 70.5 h: -2.57%

CC(=O)N1CCC(c2cnc(-c3c(C)n[nH]c3C)cn2)CC1
cytotoxicity at 70.5 h: -3.69%

CNC(=O)c1cn[nH]c1C1(C)CCCN(Cc2nccn2C(C)C)C1 (stereo not given)
cytotoxicity at 70.5 h: -2.7%

NC(=O)CN1CCCC(Cc2ccc(N)nn2)C1 (stereo not given)
cytotoxicity at 70.5 h: 36.2%

Cn1ccc(C(=O)N2CCOC(c3ccccn3)C2)cc1=O (stereo not given)
cytotoxicity at 70.5 h: 6.02%

COc1cccc(-c2ccnc(C3CCNCC3)c2)c1
cytotoxicity at 70.5 h: 7.37%

CCc1ccccc1Nc1noc2c1CN(C(=O)CCOC)CC2
cytotoxicity at 70.5 h: 18.8%

CCc1ccccc1Nc1noc2c1CN(C(=O)C1CCCO1)CC2 (stereo not given)
cytotoxicity at 70.5 h: -3.46%

COc1cccc(CC(=O)N2CCCC2c2nc(C)c(C)c(O)n2)c1 (stereo not given)
cytotoxicity at 70.5 h: -2.86%

Cc1ccc(CN(C)C(=O)NCC(C)(C)CCS(C)(=O)=O)s1
cytotoxicity at 70.5 h: -1.02%

Cc1nc(Cn2cncc(Br)c2=O)no1
cytotoxicity at 70.5 h: 6.27%

O=C(c1cccc(F)c1)N(CCCO)S(=O)(=O)c1cccs1
cytotoxicity at 70.5 h: -8.04%

CCN(C)S(=O)(=O)N1CCCC(c2nc(-c3ccccc3)c[nH]2)C1 (stereo not given)
cytotoxicity at 70.5 h: 14.3%

COC(=O)CCN(C)C(=O)c1ccc(-c2cscn2)cc1
cytotoxicity at 70.5 h: 4.45%

O=C(CCCc1nc2ccccc2[nH]1)N1CCCC1c1ccncc1 (stereo not given)
cytotoxicity at 70.5 h: 32.6%

O=c1cc(CN(Cc2ccco2)C2CC2)nc2ccc(Br)cn12
cytotoxicity at 70.5 h: -3.54%

CCn1cnnc1CNC(=O)NC(c1ccccc1)C1CCCC1 (stereo not given)
cytotoxicity at 70.5 h: -7.51%

O=c1cc(CN(CCO)C2CC2)nc2ccc(Cl)cn12
cytotoxicity at 70.5 h: 14.2%

Cc1noc(C2CCN(C(=O)c3cc(Cl)c(Cl)n3C)CC2)n1
cytotoxicity at 70.5 h: -2.97%

CCOCCC(=O)NCCNc1nccc(C(F)(F)F)n1
cytotoxicity at 70.5 h: 2.23%

CS(=O)(=O)N1CCCC(c2nc(-c3ccccc3)c[nH]2)C1 (stereo not given)
cytotoxicity at 70.5 h: -7.34%

CCOc1cncc(NCCc2nnc3ccccn23)n1
cytotoxicity at 70.5 h: -4.67%

O=C(Cc1ccon1)Nc1cncc(Br)c1O
cytotoxicity at 70.5 h: -0.318%

CN(C)C(=O)c1ccc(-c2cscn2)cc1
cytotoxicity at 70.5 h: 1.52%

O=C(Cc1ccn[nH]1)Nc1cncc(Br)c1O
cytotoxicity at 70.5 h: -2.7%

O=S(=O)(c1ccccc1Cl)N1CCCC(c2ncc[nH]2)C1 (stereo not given)
cytotoxicity at 70.5 h: -3.85%

O=C(Nc1cncc(Br)c1O)c1ccon1
cytotoxicity at 70.5 h: -2.33%

CCc1nnc(CNc2ccc(CC(=O)N3CCSCC3)cc2)o1
cytotoxicity at 70.5 h: 13.8%

Cc1noc(C2CCCN(C(=O)c3cc(Cl)cn3C)C2)n1 (stereo not given)
cytotoxicity at 70.5 h: -4.77%

COc1ccccc1OCc1nc(C(C)C)no1
cytotoxicity at 70.5 h: 12.8%

CCc1noc(CNc2cccc(C(=O)N3CCSCC3)c2)n1
cytotoxicity at 70.5 h: 0.659%

CC(NCCCn1ccnc1)c1ccc(N2CCCS2(=O)=O)cc1 (stereo not given)
cytotoxicity at 70.5 h: 31%

CC(NC(=O)CN1CCN(Cc2ccc(Br)s2)CC1)c1ccccc1 (stereo not given)
cytotoxicity at 70.5 h: 25.3%

Cc1noc(C(C)C)c1C(=O)NCC1CCN(c2ccccc2)C1 (stereo not given)
cytotoxicity at 70.5 h: 6.36%

Cc1noc(C)c1C(=O)NCC1CCCCN1Cc1ccccc1 (stereo not given)
cytotoxicity at 70.5 h: -1.55%

CN(Cc1nnc2ccccn12)C(=O)NC1CCCCC1
cytotoxicity at 70.5 h: -4.44%

CN(Cc1nnc2ccccn12)C(=O)CC1CCCCC1
cytotoxicity at 70.5 h: -8.16%

CC(C)(C)CC(NC(=O)c1nc(=O)[nH][nH]1)c1ccc(F)cc1 (stereo not given)
cytotoxicity at 70.5 h: -3.76%

O=C(CCS(=O)(=O)C1CCCC1)N1CCC(O)(C(F)(F)F)C1 (stereo not given)
cytotoxicity at 70.5 h: 19.5%

Cc1ccc(C(=O)Nc2cc(C(N)=O)ccc2CN(C)C)cc1Cl
cytotoxicity at 70.5 h: -7.51%

Cc1noc(C(C)C)c1C(=O)NCC1CCCN1Cc1ccccc1 (stereo not given)
cytotoxicity at 70.5 h: 9.45%

Cc1nc(C(C)NC(=O)NCc2nccn2CC(C)C)cs1 (stereo not given)
cytotoxicity at 70.5 h: 4.05%

CC(C)Cn1ccnc1CNC(=O)NC(C)c1nccs1 (stereo not given)
cytotoxicity at 70.5 h: 1.43%

O=C(Nc1cccnc1)Nc1ccn(CC(F)F)n1
cytotoxicity at 70.5 h: 7.38%

CCOc1ccc(NC(=O)c2scnc2CC)cc1CO
cytotoxicity at 70.5 h: 1.88%

COCC(O)CN1CCC(NC(=O)c2ccccc2Cl)CC1 (stereo not given)
cytotoxicity at 70.5 h: -0.503%

N#CCCN(C(=O)COC1CCCC1)C1CC1
cytotoxicity at 70.5 h: -0.353%

CCN(C(=O)Cc1ccc(NCc2nccn2C)cc1)c1ccccc1
cytotoxicity at 70.5 h: -6.33%

Cc1nc2n(n1)CC(NCCCc1nc(-c3cccs3)no1)CC2 (stereo not given)
cytotoxicity at 70.5 h: 4.3%

OCCN1CCCCC1C1OCCO1 (stereo not given)
cytotoxicity at 70.5 h: 0.562%

CNC(=O)CN1CCC(CN(C)CCSc2ccccc2)CC1
cytotoxicity at 70.5 h: -0.471%

C1CCN(CCN2CCCCC2C2OCCO2)CC1 (stereo not given)
cytotoxicity at 70.5 h: 3.91%

Cc1nc(C(C)C)sc1C(=O)N1CCC(C(N)=O)CC1
cytotoxicity at 70.5 h: 6%

Cc1noc(CN2CCN(c3cncc(Cl)n3)CC2)n1
cytotoxicity at 70.5 h: -4.58%

CN(C)c1cc(C(F)(F)F)nc(N2CCCC2c2ccccn2)n1 (stereo not given)
cytotoxicity at 70.5 h: -5.01%

Clc1cncc(N2CCN(Cc3ccon3)CC2)n1
cytotoxicity at 70.5 h: -3.48%

Cc1nc(CN2CCN(c3cncc(Cl)n3)CC2)no1
cytotoxicity at 70.5 h: -9.09%

Cc1cccc(S(=O)(=O)NC(=O)CN(C)Cc2ccccc2)c1
cytotoxicity at 70.5 h: 1.15%

Cc1n[nH]c(C)c1CNC(=O)NC1CCCN(c2ccccc2F)C1 (stereo not given)
cytotoxicity at 70.5 h: 6.33%

Cc1[nH]ncc1C(=O)NCC1CCC2(CC1)OCCO2
cytotoxicity at 70.5 h: -5.66%

O=C(CCNC1(c2nccs2)CCCC1)N1CCOCC1
cytotoxicity at 70.5 h: 7.56%

CC(NCCNS(=O)(=O)c1cccc(Cl)c1)C1CCOCC1 (stereo not given)
cytotoxicity at 70.5 h: -6.77%

COc1ccnc(N2CCCN(Cc3ncc(C(C)C)o3)CC2)n1
cytotoxicity at 70.5 h: -4.8%

O=C(NCCNC1CCN(c2nccs2)CC1)c1cccs1
cytotoxicity at 70.5 h: -9.14%

O=C(Cn1cc(C2CC2)nn1)N(Cc1cccs1)CC1CCCO1 (stereo not given)
cytotoxicity at 70.5 h: 10.4%

CNS(=O)(=O)c1ccc(CNC(=O)C2CCCO2)cc1 (stereo not given)
cytotoxicity at 70.5 h: 27.2%

N#Cc1ccc(NCCC(=O)N2CCCc3ccccc32)nc1
cytotoxicity at 70.5 h: -6.4%

CN(C)C(=O)CNC(=O)c1cc2ccccc2nc1N1CCCC1
cytotoxicity at 70.5 h: -7.99%

O=C(NCCCn1cccn1)c1nc2ccccc2[nH]1
cytotoxicity at 70.5 h: -10.1%

Cn1cc(CCNC(=O)c2cc3ccccc3nc2N2CCCC2)cn1
cytotoxicity at 70.5 h: 3.18%

CC(C)NC(=O)NC(C)c1nc(-c2ccccc2)cs1 (stereo not given)
cytotoxicity at 70.5 h: -6.77%

CC(NC(=O)NC1CC1)c1nc(-c2ccccc2)cs1 (stereo not given)
cytotoxicity at 70.5 h: -8.69%

COc1ccc2c(c1)NC(=O)C2OC(=O)Cc1ccccc1C (stereo not given)
cytotoxicity at 70.5 h: 31.3%

Cn1cc(NS(=O)(=O)CC2CCCCO2)cn1 (stereo not given)
cytotoxicity at 70.5 h: -8.18%

O=S(=O)(CC1CCCCO1)Nc1cnn(CC(F)F)c1 (stereo not given)
cytotoxicity at 70.5 h: -7.78%

O=C(c1cc2c(s1)CCCC2)N1CCc2nc(C3CCCN3)ncc2C1 (stereo not given)
cytotoxicity at 70.5 h: 6.76%

CC(C)(C)n1cc(CNC2CCN(C(=O)c3ccoc3)CC2)cn1
cytotoxicity at 70.5 h: -1.77%

CC(C)[C@H](N)C(=O)N1CCSc2ccccc2C1
cytotoxicity at 70.5 h: -3.37%

COc1ccccc1OCCc1cc(C2CCNC2)n[nH]1 (stereo not given)
cytotoxicity at 70.5 h: -6.36%
